Measurements published in patent US12053459B2, “CDK2 inhibitors and methods of using the same” (Cedilla Therapeutics, Inc., priority 2021, dated 2024).
pIC50: −log10 of the molar value.

Assays:
CDK2/Cyclin E1(14-475) [1] = target: T1, CDK2/Cyclin E1(14-475) (Homo sapiens, UniProt P24941); assay: Caliper LabChip EZ Reader mobility shift assay, inhibition of CDK2/Cyclin E1 activity; assay type: biochemical; conditions: class symbols A-D
Outline: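 Mobility-shift readout of fluorescent peptide (1.5 μM final) phosphorylation by 2.5 nM CDK2/Cyclin E1(14-475) at 100 μM ATP, pH 7.5. Compounds pre-incubated 30 min with enzyme before substrate addition; 100-min reaction halted by EDTA, normalized % activity fitted to four-parameter curve for IC50.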

Kuramochi cells [2] = assay: Incucyte cell proliferation assay, Kuramochi cells labeled with mApple-H2B; assay type: cell-based; conditions: class symbols A-D
Description: Kuramochi cells labeled with mApple-H2B and Kuramochi RB1−/− cells labeled with NucLight green (Sartorius, 4475) were co-plated on 384-well assay-ready plates along with test compounds at varying concentrations. Plates were placed in the IncuCyte® Sartorius and scanned at 0 and 72 hours. IncuCyte® software was used to count the number of fluorescent nuclei in each well. The fold change in cell count from 0 to 72 hours in wells treated with increasing compounds concentrations (10 pts, ½ log dilution, 20 uM top concentration) was normalized to DMSO control wells. The normalized cell counts were fit with dose response curves and a GI50 was calculated.

Kuramochi cells [3] = assay: BrdU cell proliferation assay (colorimetric ELISA), Kuramochi cells; assay type: cell-based; conditions: class symbols A-D
Outline: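 Proliferation was read as BrdU incorporation: a 1 h pulse, then fixation and peroxidase-antibody ELISA at 450 nm, with values normalized to DMSO after empty-well subtraction. Treatment lasted 4 days on Kuramochi cells seeded at 2,000/well, using four 3-fold compound dilutions from 10 mM stocks. RB^KO Kuramochi cells were run in parallel for specificity.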

CDK2/Cyclin E1(14-475) [4] = target: T1, CDK2/Cyclin E1(14-475); assay: HotSpot kinase inhibition assay (radiometric, Reaction Biology Corporation); assay type: biochemical; conditions: 10 μM ATP, class symbols A-D
Description: Inhibition of a select panel of CDK2/CCNE1 activities in the presence of compounds of the present disclosure was evaluated using the HotSpot™ assay (proprietary to Reaction Biology Corporation). In the assay, activated CDK2/Cyclin E1 catalyzes the transfer of radioactive phosphate to amino acid residues of peptide or protein substrates, which are detected radiometrically. […] Reactions contained 20 mM HEPES pH 7.5, 10 mM MgCl2, 1 mM EGTA, 2 mM DTT, 0.02% Brij35, 0.02 mg/mL BSA, 0.1 mM Na3VO4, 1% DMSO, 1.5 nM CDK2/Cyclin E1(14-475), 10 μM ATP, and 20 μM Histone H1 protein isolated from calf thymus (Sigma).
CDK2/Cyclin E1 […] and Histone H1 were mixed in reaction buffer. To this mixture, was added dose titrations of inhibitor compounds in 100% DMSO by acoustic transfer. The compound mixtures were incubated for 20 minutes, then the kinase reactions were initiated by the addition of a mixture of ATP and ^33P ATP for final concentrations of 10 μM total ATP, 20 μM Histone H1, and 1.5 nM CDK2/Cyclin E1 (14-475). The reactions were carried out for 120 minutes, then spotted on a P81 ion exchange filter paper, and extensively washed with 0.75% phosphoric acid. The resulting radioactive counts were normalized to yield % activity, plotted against compound concentration, and fit to a four-parameter equation to determine the IC50 for each compound.

| Compound | pIC50 (CDK2/Cyclin E1(14-475) [1]) | pIC50 (CDK2/Cyclin E1(14-475) [4]) | GI50 (Kuramochi cells [2]; 72 h) | pIC50 (Kuramochi cells [3]) | GI50 (Kuramochi cells [2]; 72 hours) |
| --- | --- | --- | --- | --- | --- |
| COc1cc(C(=O)N2CC3CN(C(=O)Cc4c[nH]c5cc(Cl)ccc45)CC(C(=O)NCc4ccc(C)nn4)C3C2)ccc1OC(C)C (single isomer, unassigned) [I-261] | < 5.00 |  | > 20 µM |  |  |
| CNC(=O)[C@@H](NC(=O)C1CN(C(=O)Cc2c[nH]c3cc(Cl)ccc23)CC2CN(C(=O)c3ccc(OC(C)C)c(OC)c3)CC21)[C@H](C)OCc1ccccc1 (stereo partly shown) [I-106] | ≥ 6.30 |  | 1 to 10 µM | 5.30 to 6.30 |  |
| CNC(=O)C(NC(=O)C1CN(C(=O)Cc2c[nH]c3cc(Cl)ccc23)CC2CN(C(=O)c3ccc(OC(C)C)c(OC)c3)CC21)[C@H](C)OCc1ccccc1 (single isomer, unassigned) [I-145] | ≥ 6.30 |  | 1 to 10 µM | 5.30 to 6.30 |  |
| CNC(=O)[C@@H](NC(=O)C1CN(C(=O)Cc2c[nH]c3cc(Cl)ccc23)CC2CN(C(=O)c3cc(-c4ccccc4)n[nH]3)CC21)[C@@H](C)OCC1CCCCC1 (stereo partly shown) [I-251] | < 5.00 | < 4.00 |  | 5.00 to 5.30 |  |
| COc1cc(C(=O)N2CC3CN(C(=O)Cc4c[nH]c5cc(Cl)ccc45)CC(C(=O)NCc4ccc(C)nn4)C3C2)ccc1OC(C)C (single isomer, unassigned) [I-262] | < 5.00 |  |  |  | > 20 µM |

Now from value to molecule, other results behind:

| pIC50 (CDK2/Cyclin E1(14-475) [1]) | pIC50 (CDK2/Cyclin E1(14-475) [4]) | Compound | GI50 (Kuramochi cells [2]; 72 h) | pIC50 (Kuramochi cells [3]) | GI50 (Kuramochi cells [2]; 72 hours) |
| --- | --- | --- | --- | --- | --- |
| ≥ 6.30 |  | CNC(=O)[C@@H](NC(=O)C1CN(C(=O)Cc2c[nH]c3cc(Cl)ccc23)CC2CN(C(=O)c3ccc(OC(C)C)c(OC)c3)CC21)[C@H](C)OCc1ccccc1 (single isomer, unassigned) [I-146] | 10 to 20 µM | < 5.00 |  |
| 5.30 to 6.30 |  | CNC(=O)[C@@H](NC(=O)C1CN(C(=O)Cc2c[nH]c3cc(Cl)ccc23)CC2CN(C(=O)c3ccc(OC(C)C)c(OC)c3)CC21)[C@H](C)OCc1ccccc1 (single isomer, unassigned) [I-148] |  | < 5.00 | > 20 µM |
| < 5.00 | < 4.00 | CNC(=O)[C@H](CCCc1ccccc1)NC(=O)C1CN(C(=O)Cc2c[nH]c3cc(Cl)ccc23)CC2CN(C(=O)c3cc(-c4ccccc4)on3)CC21 (stereo partly shown) [I-13] |  | 5.00 to 5.30 |  |
| < 5.00 | ≥ 6.00 | CNC(=O)[C@H](CCCc1ccccc1)NC(=O)C1CN(C(=O)Cc2c[nH]c3cc(Cl)ccc23)CC2CN(C(=O)c3cc(-c4ccccc4)[nH]n3)CC21 (stereo partly shown) [I-19] |  | 5.30 to 6.30 |  |
| < 5.00 |  | CNC(=O)[C@@H](NC(=O)C1CN(C(=O)Cc2c[nH]c3cc(Cl)ccc23)CC2CN(C(=O)c3ccc(OC(C)C)c(OC)c3)CC21)[C@H](C)OCc1ccccc1 (single isomer, unassigned) [I-147] |  | < 5.00 | > 20 µM |
